Assays:
Prostate subpanel = experiment: NCI-60 five-dose assay, prostate subpanel; assay type: cell-based, human; details: 48 h; for GI50 / CC50: Homo sapiens; for GI50: read-out: Mean GI50 Prostate; for CC50: read-out: Mean LC50 Prostate
Method: (§1) All the compounds were selected for further testing since they fulfilled the set NCI one‐dose screening parameters for threshold inhibition. They were tested at five different concentrations (0.01, 0.1, 1, 10, and 100 μM) for 48 h against the same cell line panel and the dose–response curves along with three response parameters (50% growth inhibitory concentration [GI50], the 50% lethal concentration [LC50], and the total growth inhibition [TGI]) were calculated for every cancer cell line. The full reported data and corresponding graphs are compiled in Supporting Information S1. Average values of GI50, TGI, and LC50 values of all the reported selenoesters in all the subpanels are represented in Figure 4.
(§2) All the reported selenoesters (1–6) were submitted to the DTP of NCI. First, they were screened at a single dose (10^−5 M) against a panel of 60 cancer cell lines derived from different tumor types following the methodology available (https://dtp.cancer.gov/discovery_development/nci-60/methodology.htm). As all the compounds satisfied the threshold inhibition criteria established, they were further assessed at five concentrations (0.01, 0.1, 1, 10, and 100 µM) against the same cell panel to obtain their corresponding dose–response curves and three antitumor parameters (GI50, TGI, and LC50) by regression. GraphPad Prism 7.0 Software was used to represent the corresponding graphs.

[1] = tested on: HCC‐2998‐resistant colon cancer cells; experiment: NCI-60 one-dose screen, HCC-2998; assay type: cell-based, human; details: 10 µM, 48 h
Method: (§3) To explore the potential antiproliferative properties of the newly synthesized derivatives, they were submitted to the National Cancer Institute's (NCI) Developmental Therapeutics Program (DTP) for screening at 10 μM in a panel of approximately 60 human cancer cell lines from different cancer types. The results are reported as the growth percentage (GP), which is the growth of the treated cells with each compound for 48 h compared to the untreated controls (Figure 2). […] The initial screening results are summarized in Figure 2, and the mean GP values of each subpanel are depicted in Figure 3. The full reports are compiled in the Supplementary Section.
as §2

hCA II = molecular target: T1, hCA II (Homo sapiens, UniProt P00918); experiment: hCA II inhibition, stopped-flow CO2 hydration assay; assay type: biochemical; details: stopped flow technique, mean from three assays
T1 construct: made in house
Method: An Applied Photophysics stopped‐flow instrument was used to assay the CA‐catalyzed CO2 hydration activity [52]. […] The uncatalyzed rates were determined in the same manner and subtracted from the total observed rates. Stock solutions of the inhibitor (0.1 mM) were prepared in distilled–deionized water, and dilutions up to 0.01 nM were done thereafter with the assay buffer. Inhibitor and enzyme solutions were preincubated together for 15 min at room temperature before the assay, to allow for the formation of the E–I complex. The inhibition constants were obtained by Nonlinear least‐squares methods using PRISM 3 and the Cheng‐Prusoff equation as reported earlier and represent the mean from at least three different determinations. All CA isoforms were recombinant proteins obtained in‐house, as reported earlier [54, 55, 56].

MALME‐3M = experiment: NCI-60 five-dose assay, MALME-3M; assay type: cell-based; details: Homo sapiens, 48 h
Method: as §1, §2

Ovarian subpanel = experiment: NCI-60 one-dose screen, ovarian subpanel; assay type: cell-based, human; details: 10 µM, 48 h
Method: as §3, §2

HOP‐62 = experiment: NCI-60 five-dose assay, HOP-62; assay type: cell-based; details: Homo sapiens, 48 h
Method: as §1, §2

[2] = tested on: A498 renal‐resistant cells; experiment: NCI-60 five-dose assay, A498; assay type: cell-based; details: Homo sapiens, 48 h
Method: as §1, §2

[3] = tested on: breast cancer cell line HS 578 T; experiment: NCI-60 five-dose assay, HS 578 T; assay type: cell-based, human; details: 48 h; for GI50: Homo sapiens, Hs-578T
Method: as §1, §2

HL‐60(TB) cells = experiment: NCI-60 one-dose screen, HL-60(TB); assay type: cell-based, human; details: 10 µM, 48 h
Method: as §3, §2

[4] = tested on: OVCAR‐5 ovarian cancer cells; experiment: NCI-60 five-dose assay, OVCAR-5; assay type: cell-based, human; details: 48 h
Method: as §1, §2

[5] = tested on: HT29 colon cancer cell line; experiment: NCI-60 one-dose screen, HT29; assay type: cell-based, human; details: 10 µM, 48 h
Method: as §3, §2

THP‐1 cells = experiment: THP-1 cytotoxicity (MTT, PMA-differentiated macrophages); assay type: cell-based, human; details: 48 h, mean ± SD
Method: The synthesized compounds were tested for their antileishmanial activity against promastigotes of L. major and L. infantum at four concentrations (1, 10, 50, and 100 µM) for 48 h using the 3‐(4,5‐dimethylthiazol‐2‐yl)‐2,5‐diphenyltetrazolium bromide (MTT) assay. In this evaluation, the activity was expressed in IC50 (concentration inhibiting the parasite growth by 50%). […] The CC50 was defined as the concentration of selenoesters that led to a reduction in the viability of the macrophages, such that only 50% of the cells survived when compared to the control group. This cell line, derived from the blood of a human with acute monocytic leukemia, was chosen as it has been widely reported that it resembles tissue macrophages to various extents as well as supports the infection by numerous Leishmania promastigotes. The selectivity indexes (SIs) were calculated as the ratio between toxicity on macrophages (THP‐1 cells)/antileishmanial activity. The data for standard control drugs (miltefosine and paromomycin) are included for comparison purposes.
THP‐1 cells were seeded at a concentration of 8 × 10^4 cells per well in 96‐well plates and incubated with phorbol 12‐myristate 13‐acetate (PMA) (50 ng/mL) for 72 h (37°C and 5% CO2) to differentiate them into macrophages. After that, the culture medium was removed and the cells were treated with the reported selenoesters at different increasing concentrations ranging from 1 to 200 µM for 48 h at 37°C and 5% of CO2. Macrophages treated with DMSO (1%) were used as controls, and the compounds were dissolved in DMSO at a stock concentration of 10^−2 M. Afterward, the MTT assay was performed. Data were obtained from three independent experiments performed in triplicate. The absorbance was measured at 550 nm using a MultiskanEX photometric plate reader for microplates. The CC50 values were calculated using OriginPro 8.5.1. software by nonlinear curve fitting. SIs were calculated as the ratio of the CC50 values determined for the macrophages and the IC50 values obtained in each Leishmania promastigote. GraphPad Prism 7.0 Software was used to obtain the corresponding graphs.

Compound	GI50 (Prostate subpanel) [µM]	CC50 (Prostate subpanel) [µM]	behaviour in HCC‐2998 [1]	Ki (hCA II) [µM]	GI50 (MALME‐3M) [µM]	average growth cell value, Ovarian (Ovarian subpanel) [%]	GI50 (HOP‐62) [µM]	GI50 [2] [µM]	TGI HS 578 T [3] [µM]	GI50 [3] [µM]	cytotoxic activity (LC50) in the prostate cancer subpanel (Prostate subpanel; five-dose)	behaviour in HL‐60(TB) (HL‐60(TB) cells)	cytotoxicity against OVCAR‐5 [4]	behaviour in HT29 [5]	CC50 (THP‐1 cells) [µM]
O=C(C[Se]C(=O)c1ccccc1)Nc1ccc([N+](=O)[O-])c(C(F)(F)F)c1 [Compound 2, Se‐(2‐((4‐nitro‐3‐(trifluoromethyl)phenyl)amino)‐2‐oxoethyl)benzoselenoate]	1.44	5.66	susceptible	50.4	0.83	-92.98	0.86	0.8	0.89	0.28					
O=C(C[Se]C(=O)c1ccco1)Nc1cccc(OC(F)(F)F)c1 [Compound 6, Se‐(2‐oxo‐2‐((3‐(trifluoromethoxy)phenyl)amino)ethyl)furan‐2‐carboselenoate]	5.38	100		8.2		5.95					devoid of activity	cytotoxic behavior			
O=C(C[Se]C(=O)c1ccco1)Nc1ccc([N+](=O)[O-])c(C(F)(F)F)c1 [Compound 5, Se‐(2‐((4‐nitro‐3‐(trifluoromethyl)phenyl)amino)‐2‐oxoethyl)furan‐2‐carboselenoate]	1.85	54.4	susceptible	83.3		-38.57							remarkable cytotoxicity		
N#Cc1ccc(NC(=O)C[Se]C(=O)c2ccccc2)cc1C(F)(F)F [Compound 1, Se‐(2‐((4‐cyano‐3‐(trifluoromethyl)phenyl)amino)‐2‐oxoethyl)benzoselenoate]	1.54	5.91	susceptible	80.4		-92.77		0.89		0.64					
O=C(C[Se]C(=O)c1ccccc1)Nc1cccc(OC(F)(F)F)c1 [Compound 3, Se‐(2‐oxo‐2‐((3‐(trifluoromethoxy)phenyl)amino)ethyl)benzoselenoate]	2.16	12.6		82.4		-50.78								potent cytotoxic activity	> 200

Reference: paper PMC12676205, “New Se‐Compounds With Antileishmanial, Antitumor, and Carbonic Anhydrase Inhibitory Properties” (Archiv Der Pharmazie, 2025)
